Reference: patent US20240150365A1 (Hotspot Therapeutics, Inc., priority 2022, published 2024)

Legend:
MALT1 = molecular target: T1, MALT1 (Homo sapiens, UniProt Q9UDY8); assay: MALT-1 Fluorogenic Peptide Cleavage Assay (MALT1 inhibition assay); assay type: biochemical; settings: Avi-tagged FL MALT-1, Ac-LRSR-AMC peptide substrate, 30 min pre-incubation, 90 min reaction
T1 construct: Avi-tagged FL MALT-1 (Pharmaron, stored at −70° C.); Avi tag
T1 sequence (Q9UDY8 1-824): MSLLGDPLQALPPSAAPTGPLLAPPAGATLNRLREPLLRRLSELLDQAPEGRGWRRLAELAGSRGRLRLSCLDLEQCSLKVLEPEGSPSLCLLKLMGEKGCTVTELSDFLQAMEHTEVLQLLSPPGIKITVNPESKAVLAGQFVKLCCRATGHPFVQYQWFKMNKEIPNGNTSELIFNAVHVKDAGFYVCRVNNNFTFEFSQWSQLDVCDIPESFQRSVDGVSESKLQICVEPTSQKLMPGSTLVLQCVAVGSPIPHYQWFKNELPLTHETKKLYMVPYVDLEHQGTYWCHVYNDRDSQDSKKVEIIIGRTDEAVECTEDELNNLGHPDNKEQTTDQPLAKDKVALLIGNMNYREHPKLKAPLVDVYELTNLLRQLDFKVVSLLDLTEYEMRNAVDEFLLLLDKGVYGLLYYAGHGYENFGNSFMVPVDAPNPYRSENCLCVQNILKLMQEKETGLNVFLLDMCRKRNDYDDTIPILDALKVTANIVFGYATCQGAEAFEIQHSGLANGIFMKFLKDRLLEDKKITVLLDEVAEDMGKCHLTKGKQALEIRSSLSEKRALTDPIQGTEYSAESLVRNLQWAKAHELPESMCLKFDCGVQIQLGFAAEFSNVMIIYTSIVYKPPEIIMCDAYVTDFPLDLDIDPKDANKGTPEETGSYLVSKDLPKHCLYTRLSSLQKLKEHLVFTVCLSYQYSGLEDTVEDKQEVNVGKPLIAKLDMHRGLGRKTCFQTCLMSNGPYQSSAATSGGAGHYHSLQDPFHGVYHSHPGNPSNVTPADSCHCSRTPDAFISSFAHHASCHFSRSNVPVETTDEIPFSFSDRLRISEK
Description: Inhibition of MALT1 activity by the presence of small molecules was evaluated using MALT-1 Fluorogenic Peptide Cleavage Assay. The assay utilizes a quenched AMC-labelled peptide that contains the MALT-1 recognition sequence and cleavage site (LRSR). MALT-1 mediated cleavage of the peptide relieves the quenching and leads to an increase in fluorescence at excitation (342 nm) and emission (441 nm). The following reagents were obtained commercially and used to prepare standard reagent formulations as further described below: […] The standard reagent formulations used in this assay were prepared and stored as follows. A 1.1 M solution of sodium citrate (161.3 g, 500 mL) was prepared and stored at room temperature. A 10% (w/v) CHAPS solution (2.0 g, 20 mL) was prepared and stored at 4° C. A 500 mM HEPES solution having pH of 6.89 was prepared from 200 mL of a 1 M HEPES solution having a pH of 7.5 using concentrated hydrochloric acid and brought to a final volume of 400 mL with […]® H2O. The substrate, 10 mM Ac-LRSR-AMC Peptide, was prepared (10 mg, 1.370 mL DMSO) and stored at -20° C. Compounds were plated to provide a 2% DMSO final concentration using a ProxiPlate-384 Plus F Black 384-shallow well microplate. The assay-ready plates were equilibrated to room temperature. […] DMSO was added only when compound plates had not been DMSO-backfilled to 2%. MALT-1 was thawed and kept on ice. Peptide substrate was thawed on the bench under ambient conditions. A MALT-1 enzyme working stock was prepared from Avi-tagged FL MALT-1 (40 nM in a prepared reagent volume of 16.5 μL) and the reaction buffer (13.0 mL). MALT1 working stock (5 μL) was added to each well of the microplate. MALT-1 was pre-incubated with compounds for 30 minutes at room temperature. […] The plates were covered and incubated on the bench at room temperature for 90 minutes. Fluorescence intensity was determined using a CLARIOstar microplate reader (BMG LABTECH) using the optimised AMC mode. Before taking readings, a 70% gain was applied on the neutral control well. Compound data were normalised to % Inhibition and used to plot sigmoidal concentration response curves to yield various parameters including IC50. […] Compounds in which an IC50 was not measured are designated as “N/A”.

NF-kB = NF-kB reporter assay in Jurkat cells stimulated with aCD3/aCD28/PMA; assay type: cell-based; settings: Homo sapiens, Jurkat, Jurkat cells, 1 hr compound incubation, aCD3/aCD28/PMA stimulation 4 hr, One-Glo readout; read-out: NF-kB Reporter Assay IC50
Description: Jurkat cells were maintained in complete RPMI 1640 media supplemented with 10% FBS. Prior to the assay, 120 nL of the serial diluted compound was added in each well of 384-well flat bottom white plate (Corning #3570) by using liquid handler Echo550. Jurkat cells were harvested by centrifugation at 120 g for 10 min and resuspended in fresh RPMI 1640 media without serum. 30 μL of cells (25,000 cells) were seeded in each well of 384-well plate containing compound. After 1 hr incubation at 37° C. in a 5% CO2 incubator, 10 μL of diluted aCD3/aCD28/PMA (final concentration at 5 μg/mL, 5 μg/mL and 0.03 μg/mL, respectively) in RPMI 1640 without serum were added to each well. After incubation at 37° C. in 5% CO2 for 4 hr, 30 μL of One-Glo reagent (Promega #E6120) was added into each well. The plate was left at room temperature for 5 min and the signal was measured on EnVision (PerkinElmer).
Compounds in which an IC50 was not measured are designated as “N/A”.

| IC50 (MALT1) | IC50 (NF-kB) | SMILES |
| --- | --- | --- |
| < 400 nM | < 400 nM | CCc1ccc2cnn(C)c2c1NS(=O)(=O)c1ccc(-c2cc(C(F)(F)F)n[nH]2)nc1 [Example I-1] |
| < 400 nM | < 400 nM | CCc1ccc2cnn(C)c2c1NS(=O)(=O)c1ccc(-n2cc(C(F)(F)F)cn2)nc1 [Example I-2] |
| 400 to 1000 nM | – | CCc1ccc2cnn(C)c2c1NS(=O)(=O)c1ccc(-n2cc(C(F)(F)F)c(C(=O)N(C)C)n2)nc1 [Example I-4] |
| < 400 nM | – | CCc1ccc2cnn(C)c2c1NS(=O)(=O)c1ccc(-n2cc(C(F)(F)F)c(C(=O)N3CC(O)C3)n2)nc1 [Example I-5] |
| < 400 nM | < 400 nM | CCc1ccc2cnn(C)c2c1N(C)S(=O)(=O)c1ccc(-n2cc(C(F)(F)F)cn2)nc1 [Example I-6] |
| 1000 to 2500 nM | 1000 to 2500 nM | CCc1ccc2cnn(C)c2c1NS(=O)(=O)c1ccc(-n2cc(C(F)(F)F)cn2)cn1 [Example I-7, N-(6-Ethyl-1-Methyl-1H-Indazol-7-yl)-5-(4-(Trifluoromethyl)-1H-Pyrazol-1-yl)Pyridine-2-Sulfonamide] |
| > 2500 nM | > 2500 nM | CCc1ccc2cnn(C)c2c1NS(=O)(=O)c1cnc(-n2cc(C(F)(F)F)cn2)nc1 [Example I-8, N-(6-Ethyl-1-Methyl-1H-Indazol-7-yl)-2-(4-(Trifluoromethyl)-1H-Pyrazol-1-yl)Pyrimidine-5-Sulfonamide] |
| > 2500 nM | > 2500 nM | CCc1ccc2cnn(C)c2c1NS(=O)(=O)c1ccc(-n2cc(C(F)(F)F)cn2)nn1 [Example I-9, N-(6-Ethyl-1-Methyl-1H-Indazol-7-yl)-6-(4-(Trifluoromethyl)-1H-Pyrazol-1-yl)Pyridazine-3-Sulfonamide] |
| < 400 nM | < 400 nM | COc1ccc2cnn(C)c2c1NS(=O)(=O)c1ccc(-n2cc(C(F)(F)F)cn2)nc1 [Example I-10, N-(6-Methoxy-1-Methylindazol-7-yl)-6-[4-(Trifluoromethyl) Pyrazol-1-yl]pyridine-3-Sulfonamide] |
| < 400 nM | < 400 nM | COc1ccc2cnn(C)c2c1NS(=O)(=O)c1ccc(-n2cc(C3CC3)cn2)nc1 [Example I-11, 6-(4-Cyclopropyl-1H-Pyrazol-1-yl)-N-(6-Methoxy-1-Methyl-1H-Indazol-7-yl)Pyridine-3-Sulfonamide] |
| < 400 nM | < 400 nM | COc1ccc2cnn(C)c2c1NS(=O)(=O)c1ccc(-n2cc(Cl)cn2)nc1 [Example I-13, 6-(4-Chloro-1H-Pyrazol-1-yl)-N-(6-Methoxy-1-Methyl-1H-Indazol-7-yl)Pyridine-3-Sulfonamide] |
| < 400 nM | < 400 nM | COc1ccc2cnn(C)c2c1NS(=O)(=O)c1ccc(-n2cc(C)cn2)nc1 [Example I-14, N-(6-Methoxy-1-Methyl-1H-Indazol-7-yl)-6-(4-Methyl-1H-Pyrazol-1-yl)Pyridine-3-Sulfonamide] |
| 1000 to 2500 nM | < 400 nM | COc1ccc2cnn(C)c2c1NS(=O)(=O)c1ccc(-n2cccn2)nc1 [Example I-15, N-(6-Methoxy-1-Methyl-1H-Indazol-7-yl)-6-(1H-Pyrazol-1-yl) Pyridine-3-Sulfonamide] |
| < 400 nM | < 400 nM | COc1ccc2cnn(C)c2c1NS(=O)(=O)c1ccc(-n2ccc(C(F)(F)F)n2)nc1 [Example I-16] |
| < 400 nM | < 400 nM | Cn1ncc2ccc(C3CC3)c(NS(=O)(=O)c3ccc(-n4cc(Cl)cn4)nc3)c21 [Example I-17] |
| < 400 nM | < 400 nM | COc1ccc2cnn(C)c2c1NS(=O)(=O)c1ccc(-c2cc(C(F)(F)F)nn2C)nc1 [Example I-18, N-(6-Methoxy-1-Methylindazol-7-yl)-6-[2-Methyl-5-(Trifluoromethyl)Pyrazol-3-yl]pyridine-3-Sulfonamide] |
| > 2500 nM | < 400 nM | COc1ccc2cnn(C)c2c1NS(=O)(=O)c1ccc(-c2ccn(C)n2)nc1 [Example I-19, N-(6-Methoxy-1-Methylindazol-7-yl)-6-(1-Methylpyrazol-3-yl)Pyridine-3-Sulfonamide] |
| 1000 to 2500 nM | 400 to 1000 nM | COc1ccc2cnn(C)c2c1NS(=O)(=O)c1ccc(-c2cnn(C)c2)nc1 [Example I-20, N-(6-Methoxy-1-Methylindazol-7-yl)-6-(1-Methylpyrazol-4-yl)Pyridine-3-Sulfonamide] |
| > 2500 nM | < 400 nM | COc1ccc2cnn(C)c2c1NS(=O)(=O)c1ccc(-c2cn(C)nn2)nc1 [Example I-21, N-(6-Methoxy-1-Methyl-1H-Indazol-7-yl)-6-(1-Methyl-1H-1,2,3-Triazol-4-yl)Pyridine-3-Sulfonamide] |
| < 400 nM | < 400 nM | COc1ccc2cnn(C)c2c1NS(=O)(=O)c1ccc(-c2cc(C(F)(F)F)n[nH]2)nc1 [Example I-22, N-(6-Methoxy-1-Methylindazol-7-yl)-6-[5-(Trifluoromethyl)-2H-Pyrazol-3-yl]pyridine-3-Sulfonamide] |
| 400 to 1000 nM | < 400 nM | Cn1ncc2cccc(NS(=O)(=O)c3ccc(-n4cc(C(F)(F)F)cn4)nc3)c21 [Example I-23, N-(1-Methyl-1H-Indazol-7-yl)-6-(4-(Trifluoromethyl)-1H-Pyrazol-1-yl)Pyridine-3-Sulfonamide] |
| 1000 to 2500 nM | < 400 nM | Cc1n[nH]c2cccc(NS(=O)(=O)c3ccc(-n4cc(C(F)(F)F)cn4)nc3)c12 [Example I-24, N-(3-Methyl-1H-Indazol-4-yl)-6-(4-(Trifluoromethyl)-1H-Pyrazol-1-yl)Pyridine-3-Sulfonamide] |
| < 400 nM | – | CCc1ccc2cnn(C)c2c1NS(=O)(=O)c1ccc(-c2ccc(C(=O)OC)c(Cl)c2)nc1 [Example I-45, Methyl 2-Chloro-4-(5-(N-(6-Ethyl-1-Methyl-1H-Indazol-7-yl)Sulfamoyl)Pyridin-2-yl)Benzoate] |
| < 400 nM | – | CCc1ccc2cnn(C)c2c1NS(=O)(=O)c1ccc(-c2ccnc(C(F)(F)F)c2)nc1 [Example I-46, N-(6-Ethyl-1-Methyl-1H-Indazol-7-yl)-2′-(Trifluoromethyl)-[2,4′-Bipyridine]-5-Sulfonamide] |
| 1000 to 2500 nM | – | CCc1ccc2cnn(C)c2c1NS(=O)(=O)c1ccc(-c2ccncc2)nc1 [Example I-47, N-(6-Ethyl-1-Methyl-1H-Indazol-7-yl)-[2,4′-Bipyridine]-5-Sulfonamide] |
